{"source": "patent US11197908B2", "about": "“Peptoids and methods for attenuating inflammatory response” (THE BOARD OF TRUSTEES OF THE UNIVERSITY OF ARKANSAS, priority 2018, dated 2021)", "type_in_all_cases": "cell-based, human", "key": {"RAGE [1]": {"tested_on": "RAGE", "assay": "Aβ1-42 oligomer induced RAGE expression in THP1 macrophages (confocal imaging)", "settings": "3 days", "description": "Aβ1-42 oligomers were prepared at 15 μM through the addition of 12 mM phosphate containing […] to DMSO-solubilized AP. After 15-minute incubation, oligomerization was halted and used to immediately prepare treatments of 10 nM Aβ1-42 oligomers alone (positive control) or in the presence of the peptoid at concentrations ranging from 1 μM to 25 μM. Treatments were applied to THP1 macrophages for 3 days prior to cell fixation and staining. Treatment with 10 nM Aβ1-42 oligomers alone served as a positive control, while treatment with an equivalent volume of buffer diluted into media served as the vehicle. Treatment with 15 μM JPT1a ensured that JPT1a alone had no effect. Cells were fixed and stained for RAGE, phalloidin (cytoplasmic marker), and DAPI (nuclear marker). […] All multi-channel images were converted to TIFF file format via ImageJ64 software for quantitative image analysis using a custom subroutine written in MATLAB™ software to obtain the average RAGE expression per volume of cells.\nTreatment with an equivalent volume of buffer diluted into media served as the vehicle. Treatment with 25 μM JPT1a in the presence of vehicle assessed the effect of the peptoid alone (black). Images were analyzed via custom MATLAB™ subroutine to determine the average quantity of RAGE present within a given volume of cells. […]"}, "IL-6": {"tested_on": "IL-6", "assay": "IL-6 in supernatant of THP-1 macrophages co-incubated with peptoid and LPS (ELISA)", "settings": "3 days, vs LPS alone", "description": "(§1) THP-1 monocytes were differentiated into macrophages through exposure to phorbol 12-myristate 13-acetate (PMA) for three days prior to experimentation 10. […] Upon differentiation, these cells were then incubated (3 days) with media containing JPT1a (50, 10, or 2 μM) alone or JPT1a (50, 10, or 2 μM) in the presence of low-dose (2 ng/mL) lipopolysaccharide (LPS) as a chronic pro-inflammatory stimulus 11. Treatment with 2 ng/mL LPS alone served as a positive control, while treatment with an equivalent volume of buffer diluted into media served as the vehicle. Cellular supernatant was harvested on day 3 12; these samples were immediately centrifuged at 1200 rpm for 10 min at 25° C. to remove any cells or debris. The top 80% of this volume was subsequently removed and stored at −80° C. for later assessment of cytokines via ELISA. Cells were fixed and stained for RAGE, phalloidin (cytoplasmic marker), and DAPI (nuclear marker) 13. […] All multi-channel images were converted to TIFF file format via ImageJ64 software for quantitative image analysis using a custom subroutine written in Matlab™ software to obtain the average RAGE expression per volume of cells, and the data generated was assessed for statistical significance using GraphPad Prism 7.0 software 15.\n(§2) As shown in FIGS. 2B-2D, THP-1 macrophages were treated with JPT1a alone (white) or in the presence of a chronic low-dose (2 ng/mL) of LPS (grey), for 3 days prior to supernatant harvest and storage. Examination of the supernatant via ELISA determined the concentrations of (FIG. 2B) IL-1β, (FIG. 2C) IL-6, and (FIG. 2D) IL-8. […]\nas §2, with “5B-5D,” for “2B-2D,”, “JPT1” for “JPT1a”, “5B)” for “2B)”, “5C)” for “2C)”, “5D)” for “2D)”"}, "RAGE [2]": {"tested_on": "RAGE", "assay": "Reversal of LPS-induced RAGE expression in previously stimulated THP-1 macrophages (confocal imaging)", "settings": "additional 24 h, vs LPS alone", "description": "THP-1 monocytes were differentiated as described above 20. Upon differentiation, these cells were then incubated (48 h) with media containing low-dose (2 ng/mL) LPS as a chronic pro-inflammatory stimulus 21. Following incubation, JPT1a or JPT1 was added for final concentrations of 25, 5, and 1 μM 22, and cells were incubated an additional 24 h. Treatment with 2 ng/mL LPS alone served as a positive control, while treatment with an equivalent volume of buffer diluted into media served as the vehicle. Media was collected for later assessment of cytokines via ELISA as described above 23. Cells were fixed and stained for RAGE, phalloidin (cytoplasmic marker), and DAPI (nuclear marker) 24. […] 25 All multi-channel images were converted to TIFF file format via ImageJ64 software for quantitative image analysis using a custom subroutine written in Matlab™ software to obtain the average RAGE expression per volume of cells, and the data generated was assessed for statistical significance using GraphPad Prism 7.0 software 26.\nAfter 48 hours, half of the supernatant was removed, treated with JPT1a (dashed-grey) at final concentrations of 25, 5, 1, and 0 μM (positive control), and then added back to respective samples. […] Images were analyzed via custom MATLAB™ subroutine to determine the average quantity of RAGE present within a given volume of cells. […]"}, "IL-8": {"tested_on": "IL-8", "assay": "IL-8 in supernatant of THP-1 macrophages co-incubated with peptoid and LPS (ELISA)", "settings": "3 days, vs LPS alone", "description": "as §1, with “debris.” for “debris. The top 80% of this volume was subsequently removed and stored at −80° C. for later assessment of cytokines via ELISA. Cells were fixed and stained for RAGE, phalloidin (cytoplasmic marker), and DAPI (nuclear marker) 13.”\nas §2"}}, "note": "Where a SMILES comes first, the peptide text is derived from it. [ ]: non-standard residue; d: D form. N(1S-Me-propyl)Gly = CC[C@H](C)NCC(=O)O; Nspe = C[C@H](NCC(=O)O)c1ccccc1; Nlys = NCCCCNCC(=O)O"}
{"smiles": "CC[C@H](C)N(CC(=O)N(CC(=O)N(CC(=O)N(CC(=O)N(CC(=O)N(CC(=O)N(CC(N)=O)[C@@H](C)c1ccccc1)[C@@H](C)c1ccccc1)[C@@H](C)CC)[C@@H](C)c1ccccc1)[C@@H](C)c1ccccc1)[C@@H](C)CC)C(=O)CNCCCCN", "note": "[JPT1a] (H-[Nlys][N(1S-Me-propyl)Gly][N(1S-Me-propyl)Gly][Nspe][Nspe][N(1S-Me-propyl)Gly][Nspe][Nspe]-NH2)", "values": [{"measurement": "expression of RAGE, JPT1a alone", "setting": "RAGE [1]; 25 μM JPT1a in the presence of vehicle", "result": "does not provoke significant response or upregulation"}, {"measurement": "Aβ1-42 oligomer induced RAGE expression", "setting": "RAGE [1]; JPT1a 25, 10, 5 or 1 μM with 10 nM Aβ1-42 oligomers, fraction of positive control", "result": "dose-dependent reduction"}, {"measurement": "levels of LPS-induced IL-6", "setting": "IL-6; peptoid 10 μM with 2 ng/mL LPS", "result": "significantly reduces"}, {"measurement": "LPS-induced production of IL-6", "setting": "IL-6; peptoid 50 μM with 2 ng/mL LPS", "result": "significantly attenuates"}, {"measurement": "reversal in LPS-induced RAGE expression", "setting": "RAGE [2]; 5 μM added after 48 h of 2 ng/mL LPS", "result": "significant reversal"}, {"measurement": "reversal in LPS-induced RAGE expression", "setting": "RAGE [2]; 25 μM added after 48 h of 2 ng/mL LPS", "result": "significant reversal"}, {"measurement": "levels of LPS-induced IL-8", "setting": "IL-8; peptoid 10 μM with 2 ng/mL LPS", "result": "significantly reduces"}, {"measurement": "LPS-induced production of IL-8", "setting": "IL-8; peptoid 50 μM with 2 ng/mL LPS", "result": "significantly attenuates"}]}
